Earlier results, collected in patent US20220202698A1, “EXTENDED RELEASE PHARMACEUTICAL COMPOSITIONS OF RIOCIGUAT” (Jubilant Pharma Holdings Inc., priority 2020, published 2022).

Tests used:
[1] = human, in vivo
[2] = BCS classification

Elimination half-life [1]: about 12 hours
Solubility [2]: low solubility
Structure (SMILES): COC(=O)N(C)c1c(N)nc(-c2nn(Cc3ccccc3F)c3ncccc23)nc1N [Riociguat, methyl 4,6-diamino-2-[1-(2-fluorobenzyl)-1H-pyrazolo[3,4-b]pyridin-3-yl]-5-pyrimidinyl(methyl)carbamate]
